According to patent US8592403B2, “Diazepine and diazocane compounds as MC4 agonists” (Pfizer Limited, priority 2008, dated 2013):

Columns and labels:
MC4 receptor (MC4R) = biological target: T1, MC4 receptor (MC4R) (Homo sapiens, UniProt P32245); assay: Nle4, D-Phe7-α-MSH inhibition at the MC4 receptor (competition binding, SPA, CHO-CRE MC4R membranes)
T1 construct: expressed in transfected cells; host or cells: CHO-CRE MC4R cells (membranes)
Text: Nle4, D-Phe7-α-MSH Inhibition at the MC4 Receptor
(§1) Nle4, D-Phe7-α-MSH is a stable analogue of melanocyte-stimulating hormone (MSH), which is an agonist at the MC4 receptor (MC4R). Compounds can be evaluated for their ability to inhibit Nle4, D-Phe7-α-MSH binding to membranes from cells expressing the MC4R using a competition binding assay versus [^125I] Nle4, D-Phe7-α-MSH.
Cells expressing the MC4R were subject to homogenisation and the membrane fragment isolated by differential centrifugation. CHO-CRE MC4R cell membranes were coupled to PVT-PEI-WGA SPA Beads type A for 2 hours, spun at 1000 RPM for 5 min and suspended to a concentration of 300 ug bead/ml (0.15 ug membrane, 15 ug bead per well). Bead/membrane mix was incubated with 0.06 nM [^125I] Nle4, D-Phe7-α-MSH and 11 half-log concentrations of competitor ligand, in duplicate, in a total volume of 50 μl buffer per well (25 mM HEPES, 1 mM MgCl2, 2.5 mM CaCl2, 1% Pluronic F68, 1 complete EDTA protease inhibitor tablet/50 ml pH7). Non-specific binding was determined by the inclusion of 100 nM SHU9119. The reaction was initiated by the addition of bead/membranes and plates were incubated at room temperature for 12 hours (the first hour on a plate shaker), after which the amount of radioactivity present was determined using a Wallac plate counter. Ki values were determined by data analysis using appropriate software.

MC3 receptor (MC3R) = biological target: T2, MC3 receptor (MC3R) (Homo sapiens, UniProt P41968); assay: Nle4, D-Phe7-α-MSH inhibition at the MC3 receptor (competition binding, SPA, CHO-CRE MC3R membranes)
T2 construct: expressed in transfected cells; host or cells: CHO-CRE MC3R cells (membranes)
Text: Nle4, D-Phe7-α-MSH Inhibition at the MC3 Receptor
as §1, with “MC3” for “MC4”, “(MC3R).” for “(MC4R).”, “MC3R” for “MC4R”
Cells expressing the MC3R were subject to homogenisation and the membrane fragment isolated by differential centrifugation. CHO-CRE MC3R cell membranes were coupled to PVT-PEI-WGA SPA Beads type A for 2 hours, spun at 1000 RPM for 5 mins and suspended to a final assay concentration of 800 ug bead/ml (1.2 ug membrane, 40 ug bead per well). Bead/membrane mix was incubated with 0.06 nM [^125I] Nle4, D-Phe7-α-MSH and 11 half-log concentrations of competitor ligand, in duplicate, in a total volume of 50 μl buffer per well (25 mM HEPES, 1 mM MgCl2, 2.5 mM CaCl2, 1% Pluronic F68, 1 complete EDTA protease inhibitor tablet/50 ml pH7). Non-specific binding was determined by the inclusion of 100 nM SHU9119. The reaction was initiated by the addition of bead/membranes and plates were incubated at room temperature for 12 hours (the first hour on a plate shaker), after which the amount of radioactivity present was determined using a Wallac plate counter. Ki values were determined by data analysis using appropriate software.

[1] = In vitro metabolism rate determination, human liver microsome (HLM) assay; format: in vitro ADME; conditions: human, liver microsomes, read-out: HLM: Clint, app
Method in brief: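 Human liver microsomes at 0.5 nmol cytochrome P450/ml with 1 μM substrate, pre-warmed 5 min at 37° C, reaction started with NADP; samples taken 0–60 min and terminated. Substrate loss measured; first-order rate constant from log-linear regression converted to half-life or Clint (μl/min/mg protein).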

CYP3A4 = biological target: T3, CYP3A4 (Homo sapiens, UniProt P08684); assay: High density DDI 3 μM cocktail screen in human liver microsomes, midazolam probe; format: in vitro ADME; conditions: human, liver microsomes, probe midazolam, read-out: % inhibition 3A4 @ 3 μM
T3 construct: utilizes human liver microsomes together with isoform-specific clinical drug probes; from tissue; host or cells: human liver microsomes
Method in brief: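 Pooled human liver microsomes incubated with isoform-specific clinical probe substrates as a cocktail (midazolam for CYP3A4), with or without test compound at 3 μM. Metabolite formation followed over time by LC-MS/MS. Inhibition expressed as a single-point percentage.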

MC4 receptor = MC4 receptor (Homo sapiens, UniProt P32245); assay: MC4 EC50 functional potency (protocol E of US2005/0176772 / WO 2005/077935); format: cell-based
Protocol: The compounds of formula (I) of the present invention have utility as MCR4 agonists in the treatment of various disease states.
MC5 and MC4 EC50 activity was determined as described by assay protocols D and E, respectively, in US2005/0176772 (pages 28-30).

T3 sequence (P08684 whole entry, canonical isoform): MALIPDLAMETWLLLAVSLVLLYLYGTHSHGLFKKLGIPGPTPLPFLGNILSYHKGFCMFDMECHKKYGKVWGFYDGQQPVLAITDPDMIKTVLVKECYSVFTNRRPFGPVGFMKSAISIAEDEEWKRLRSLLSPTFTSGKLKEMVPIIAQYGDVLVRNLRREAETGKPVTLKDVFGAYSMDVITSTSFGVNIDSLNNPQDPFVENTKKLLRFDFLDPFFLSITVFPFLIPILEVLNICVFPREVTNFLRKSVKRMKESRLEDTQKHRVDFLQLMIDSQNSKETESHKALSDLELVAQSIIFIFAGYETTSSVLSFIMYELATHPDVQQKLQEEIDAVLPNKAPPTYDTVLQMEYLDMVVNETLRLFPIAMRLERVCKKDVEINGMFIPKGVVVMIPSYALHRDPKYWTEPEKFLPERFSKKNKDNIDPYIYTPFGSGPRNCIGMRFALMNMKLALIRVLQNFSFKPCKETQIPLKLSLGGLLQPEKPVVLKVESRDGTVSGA
T2 sequence (P41968 whole entry): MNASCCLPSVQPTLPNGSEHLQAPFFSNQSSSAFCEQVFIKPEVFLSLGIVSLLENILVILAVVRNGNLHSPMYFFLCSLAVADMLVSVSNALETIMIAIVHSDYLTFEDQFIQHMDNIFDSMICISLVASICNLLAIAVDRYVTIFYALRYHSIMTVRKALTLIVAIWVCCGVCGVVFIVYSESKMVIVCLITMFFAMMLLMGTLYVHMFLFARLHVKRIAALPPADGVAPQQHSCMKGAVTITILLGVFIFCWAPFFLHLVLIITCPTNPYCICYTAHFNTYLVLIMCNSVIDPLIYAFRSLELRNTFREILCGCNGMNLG
MC4 receptor, sequence (P32245 whole entry): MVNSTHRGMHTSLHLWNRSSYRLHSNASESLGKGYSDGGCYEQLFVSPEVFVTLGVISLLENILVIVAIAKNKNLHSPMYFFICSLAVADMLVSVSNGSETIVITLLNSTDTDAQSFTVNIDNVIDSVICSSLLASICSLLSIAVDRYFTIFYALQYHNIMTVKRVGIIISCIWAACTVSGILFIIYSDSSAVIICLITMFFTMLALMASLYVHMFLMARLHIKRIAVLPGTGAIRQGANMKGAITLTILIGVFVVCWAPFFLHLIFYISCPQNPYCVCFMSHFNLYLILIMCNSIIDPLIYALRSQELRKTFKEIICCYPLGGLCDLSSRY
T1 sequence (P32245 whole entry): as above

Ki (MC4 receptor (MC4R)) [nM]	Ki (MC3 receptor (MC3R)) [nM]	microsomal CLint at 1 μM [1] [µL/min/mg]	inhibition at 3 µM (CYP3A4) [%]	EC50 (MC4 receptor) [nM]	Structure (SMILES)
5180	19400	66	47	60.6	COC(=O)N1CCN(C(=O)[C@@H]2CN(C(C)(C)C)C[C@H]2c2ccc(F)cc2F)CCCC1c1ccccc1 (mixture of isomers) [Example 82]
1690	8110	23	29	32.1	COC(=O)N1CCN(C(=O)[C@@H]2CN(C(C)(C)C)C[C@H]2c2ccc(F)cc2F)CCCC1c1ccc(Cl)cc1 (mixture of isomers) [Example 83]
1770	17900	32.4	33.5	274	COc1ccc([C@@H]2CN(C(C)(C)C)C[C@H]2C(=O)N2CCCC(c3ccc(Cl)cc3)N(S(C)(=O)=O)CC2)c(F)c1 (mixture of isomers) [Example 92]
1620	3720	247	63	157	COC(=O)N1CCN(C(=O)[C@@H]2CN(C(=O)OC(C)(C)C)C[C@H]2c2ccc(F)cc2F)CCCC1c1ccccc1 (mixture of isomers) [Example 97]
583	9080	69.2	48	18	CCCC(=O)N1CCN(C(=O)[C@@H]2CN(C(C)(C)C)C[C@H]2c2ccc(F)cc2F)CCCC1c1ccccc1 (mixture of isomers) [Example 104, 1-{[(3S,4R)-1-tert-butyl-4-(2,4-difluorophenyl)pyrrolidin-3-yl]carbonyl}-4-butyryl-5-phenyl-1,4-diazocane]
92.2	571	42	37.5	36.1	COc1ccc([C@@H]2CN(c3ccc(C#N)nn3)C[C@H]2C(=O)N2CCCC(c3ccc(Cl)cc3)N(S(C)(=O)=O)CC2)c(F)c1 (mixture of isomers) [Example 105, 6-[(3S,4R)-3-{[5-(4-chlorophenyl)-4-(methylsulfonyl)-1,4-diazocan-1-yl]carbonyl}-4-(2-fluoro-4-methoxyphenyl)pyrrolidin-1-yl]pyridazine-3-carbonitrile]
96.4	683	47	55.5	27.7	COC(=O)N1CCN(C(=O)[C@@H]2CN(c3ccc(Cl)nn3)C[C@H]2c2ccc(OC)cc2F)CCCC1c1ccc(Cl)cc1 (mixture of isomers) [Example 107, Methyl 8-(4-chlorophenyl)-4-{[(3S,4R)-1-(6-chloropyridazin-3-yl)-4-(2-fluoro-4-methoxyphenyl)pyrrolidin-3-yl]carbonyl}-1,4-diazocane-1-carboxylate]
17.4	404	15	65.5	3.38	COC(=O)N1CCN(C(=O)[C@@H]2CN(c3ccc(=O)[nH]n3)C[C@H]2c2ccc(OC)cc2F)CCCC1c1ccc(Cl)cc1 (mixture of isomers) [Example 112, methyl 8-(4-chlorophenyl)-4-{[(3S,4R)-4-(2-fluoro-4-methoxyphenyl)-1-(6-oxo-1,6-dihydropyridazin-3-yl)pyrrolidin-3-yl]carbonyl}-1,4-diazocane-1-carboxylate]
24.3	573	12	75	3.6	COC(=O)N1CCN(C(=O)[C@@H]2CN(c3ccc(=O)n(C)n3)C[C@H]2c2ccc(OC)cc2F)CCCC1c1ccc(Cl)cc1 (mixture of isomers) [Example 116]
68.4	942	24	66.5	14.7	COc1ccc([C@@H]2CN(c3ccc(=O)[nH]n3)C[C@H]2C(=O)N2CCCC(c3ccc(Cl)cc3)N(S(C)(=O)=O)CC2)c(F)c1 (mixture of isomers) [Example 111, 6-[(3S,4R)-3-{[5-(4-chlorophenyl)-4-(methylsulfonyl)-1,4-diazocan-1-yl]carbonyl}-4-(2-fluoro-4-methoxyphenyl)pyrrolidin-1-yl]pyridazin-3(2H)-one]
53.9	1090	22.7	58.2	15.7	COc1ccc([C@@H]2CN(c3ccc(=O)n(C)n3)C[C@H]2C(=O)N2CCCC(c3ccc(Cl)cc3)N(S(C)(=O)=O)CC2)c(F)c1 (mixture of isomers) [Example 115, 6-[(3S,4R)-3-{[5-(4-chlorophenyl)-4-(methylsulfonyl)-1,4-diazocan-1-yl]carbonyl}-4-(2-fluoro-4-methoxyphenyl)pyrrolidin-1-yl]-2-methylpyridazin-3(2H)-one]
50.5	1300	24.8	44.3	12.7	COc1ccc([C@@H]2CN(c3ccc(=O)[nH]n3)C[C@H]2C(=O)N2CCCC(c3ccc(Cl)cc3)N(S(C)(=O)=O)CC2)c(F)c1 (single isomer, unassigned) [Example 113]
28.5	250	38	66.5	6.4	COC(=O)N1CCN(C(=O)[C@@H]2CN(c3ccc(C#N)nn3)CC2c2ccc(OC)cc2F)CCCC1c1ccc(Cl)cc1 (stereo in doubt) [Example 106, methyl 8-(4-chlorophenyl)-4-{[(3S,4S)-4-(2-fluoro-4-methoxyphenyl)-1-(6-cyanopyridazin-3-yl)pyrrolidin-3-yl]carbonyl}-1,4-diazocane-1-carboxylate]
226	1680	17.4	80.4	23.2	CC(=O)N1CCN(C(=O)[C@@H]2CN(c3ccc4nncn4n3)C[C@H]2c2ccc(Cl)cn2)CCC[C@@H]1c1ccc(Cl)cc1 [Example 5]
1010	11500	17	23.9	52.1	CC(=O)N1CCN(C(=O)[C@@H]2CN(C(C)(C)C)C[C@H]2c2ccc(F)cc2F)CCC[C@H]1c1ccc(Cl)cc1 [Example 8]
1530	12600	44.7	29.1	52.8	COCC(=O)N1CCN(C(=O)[C@@H]2CN(C(C)(C)C)C[C@H]2c2ccc(F)cc2F)CCC[C@H]1c1ccc(Cl)cc1 [Example 9]
807	4150	17	34	32.8	CC(C)(C)N1C[C@@H](C(=O)N2CCC[C@@H](c3ccc(Cl)cc3)N(C(=O)CC(F)(F)F)CC2)[C@H](c2ccc(F)cc2F)C1 [Example 12]
366	5000	37.8	48.8	13.8	CCCC(=O)N1CCN(C(=O)[C@@H]2CN(C(C)(C)C)C[C@H]2c2ccc(F)cc2F)CCC[C@H]1c1ccc(Cl)cc1 [Example 13]
